Measured values published in paper PMC5065007 (Journal of the American Chemical Society, 2016).
Where no end group is shown, it is not given here.

Target: δPKC (Homo sapiens, UniProt Q05655)
Test: AGILE label-free binding assay, δPKC to immobilized peptide

Chain of δPKC (Q05655 whole entry): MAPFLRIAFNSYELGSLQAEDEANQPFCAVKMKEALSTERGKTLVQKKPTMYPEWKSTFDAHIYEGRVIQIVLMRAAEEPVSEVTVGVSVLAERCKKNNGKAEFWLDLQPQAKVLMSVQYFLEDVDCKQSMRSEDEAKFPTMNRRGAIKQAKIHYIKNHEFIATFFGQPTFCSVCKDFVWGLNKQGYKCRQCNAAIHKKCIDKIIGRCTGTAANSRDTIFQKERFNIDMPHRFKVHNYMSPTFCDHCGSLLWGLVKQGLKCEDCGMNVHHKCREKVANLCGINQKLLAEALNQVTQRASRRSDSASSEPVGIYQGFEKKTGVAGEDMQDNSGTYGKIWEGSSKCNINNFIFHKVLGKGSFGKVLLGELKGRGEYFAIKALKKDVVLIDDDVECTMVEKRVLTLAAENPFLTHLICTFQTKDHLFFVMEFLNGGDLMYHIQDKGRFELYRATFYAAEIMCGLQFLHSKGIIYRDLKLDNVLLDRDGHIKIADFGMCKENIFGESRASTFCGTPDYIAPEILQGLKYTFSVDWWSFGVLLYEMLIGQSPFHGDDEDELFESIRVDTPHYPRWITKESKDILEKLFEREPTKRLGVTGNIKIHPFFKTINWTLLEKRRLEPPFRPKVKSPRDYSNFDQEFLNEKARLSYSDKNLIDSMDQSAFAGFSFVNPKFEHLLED

## ALSAER [ψPDK analog]
  IC50: 1250 nM
  Kd: 1250 nM

## ALSTER [ψPDK]
  IC50: 53 nM
  Kd: 53 ± 19 nM
